{
  "source": "patent US10624895B2",
  "about": "“Methods of sensitizing a patient with glioma to a therapeutic agent by administering small hairpin RNA targeting PDZ-RHOGEF” (THE TRANSLATIONAL GENOMICS RESEARCH INSTITUTE, priority 2016, dated 2020)",
  "system": "T98G cells overexpressing TROY",
  "assay": "TROY-induced transwell migration with erlotinib",
  "assay_type": "cell-based, human",
  "details": "erlotinib (20 uM) 30 min prior to EGF (20 nM), 24 hours",
  "procedure": "FIG. 40 depicts the impact of EGFR suppression by erlotinib on TROY-induced glioma cell migration. Parental T98G (copGFP) and T98G cells overexpressing TROY (TROY WT) were […] for 16 hours and placed into a transwell migration chamber. Cells were then pretreated with erlotinib (20 uM) for 30 min prior to EGF stimulation (20 nM). Cell migration was after 24 hours (* p<0.01).\nThus, the capacity of TROY to stimulate glioma cell invasion and increase TMZ and IR resistance could rely on the formation of a TROY-EGFR signaling complex. This association could activate, or potentiate, shared signaling pathways survival pathways as well as activate distinct TROY signaling pathways that mediate TROY receptor specific functional activities. Therefore, therapeutic approaches targeting TROY and/or both receptors may yield increased therapeutic benefit.",
  "data": [
    {"smiles": "C#Cc1cccc(Nc2ncnc3cc(OCCOC)c(OCCOC)cc23)c1", "note": "[erlotinib]", "values": [
      {"measurement": "TROY-induced glioma cell migration", "result": "suppresses TROY-induced glioma cell migration"}
    ]}
  ]
}
